# Laboratory results reported in patent publication US20080096967A1, “Formulations for Injection of Catecholic Butanes, Including Ndga Compounds, Into Animals” (priority 2005, published 2008).
# System: HeLa, an HPV-18 positive human cervical cancer cell line
# Assay: Cell proliferation and cell death, trypan blue exclusion, HeLa cells
# Assay type: cell-based
# Experimental: M4N in 10% (w/v) HP-β-CD and 25% (v/v) PEG 300 (hereafter, the “CPE formulation”), M4N in 30% (w/v) HP-β-CD and 25% (v/v) PEG 300 (hereafter, the “CPE 25/30 formulation”) and M4N in 27% (w/v) HP-β-CD and 33% (v/v) PEG 300 (hereafter, the “CPE 33/27 formulation”) was tested for their effects on cell death and proliferation on two different tumor cell lines: HeLa, an HPV-18 positive human cervical cancer cell line, and C-33A, an HPV-negative human cervical cancer cell line M4N in DMSO was also tested in parallel. Both tumor cell lines were treated with increasing amounts of M4N: 0 μM, 20 μM, 40 μM, 60 μM and 80 μM, for 72 hr with the DMSO or the CPE formulation. Each formulation was added to total 1% of the growth media (Minimal Essential Medium with L-glutamine supplemented with 10% fetal bovine serum, 1 mM sodium pyruvate, 1× non-essential amino acid solution, and 1,000 IU/mL penicillin/1,000 μg/mL streptomycin solution). Control cells were grown under the same conditions and were left untreated. After 72 hr of treatment or no treatment, the total number of cells and the number of live cells in each sample were counted, using the trypan blue exclusion method. The cell proliferation rate and the percentage of dead cells in each sample were analyzed. Results of this experiment are shown in FIG. 1, FIG. 2, and Tables 6 through 12.
# FIG. 1 is a graphical representation of the ratio of the number of treated cells/number of untreated cells plotted against increasing concentrations of M4N in either the DMSO formulation or the CPE formulation for treatment of the C-33A cells and HeLa cells. FIG. 2 is a graphical representation of the percentage of dead cells plotted against increasing concentrations of M4N and in either DMSO formulation or the CPE formulation for treatment of the two cancer cell lines, C-33A and HeLa cells in culture.
# Various lots of M4N were tested to show the effectiveness of the drug of different lots. HeLa cells were treated with increasing amounts of M4N: 0 μM, 20 μM, 40 μM, 60 μM and 80 μM, for 72 hr with the CPE formulation. Each formulation was added to total 1% of the growth media (Minimal Essential Medium with L-glutamine supplemented with 10% fetal bovine serum, 1 mM sodium pyruvate, 1× non-essential amino acid solution, and 1,000 IU/mL penicillin/1,000 μg/mL streptomycin solution). Control cells were grown under the same conditions and were left untreated. After 72 hr of treatment or no treatment, the total number of cells and the number of live cells in each sample were counted, using the trypan blue exclusion method. The cell proliferation rate and the percentage of dead cells in each sample were analyzed.
# [1] = M4N 60 μM in CPE formulation, 72 hr, at 9 months
# [2] = M4N 60 μM in CPE formulation, 72 hr, at 12 months
# [3] = M4N 60 μM in CPE formulation, 72 hr, comparison with CPE 25/30
# [4] = M4N 60 μM in CPE formulation, 72 hr, time 0
# [5] = M4N 60 μM in CPE formulation, 72 hr, time zero, comparison with CPE 33/27
# [6] = M4N 60 μM in DMSO, 72 hr, at 9 months
# [7] = M4N 60 μM in DMSO, 72 hr, at 12 months
# [8] = M4N 60 μM in DMSO, 72 hr, time 0
# [9] = M4N 80 μM in CPE 25/30 formulation, 72 hr
# [10] = M4N 80 μM in CPE 25/30 formulation, 72 hr, at 3 months
# [11] = M4N 80 μM in CPE 33/27 formulation, 72 hr, time zero
# [12] = M4N 80 μM in CPE formulation, 72 hr, at 3 months
# [13] = M4N 80 μM in CPE formulation, 72 hr, at 9 months
# [14] = M4N 80 μM in CPE formulation, 72 hr, at 12 months
# [15] = M4N 80 μM in CPE formulation, 72 hr, comparison with CPE 25/30
# [16] = M4N 80 μM in CPE formulation, 72 hr, time 0
# [17] = M4N 80 μM in CPE formulation, 72 hr, time zero, comparison with CPE 33/27
# [18] = M4N 80 μM in DMSO, 72 hr, at 9 months
# [19] = M4N 80 μM in DMSO, 72 hr, at 12 months
# [20] = M4N 80 μM in DMSO, 72 hr, time 0
# [21] = M4N lot EM1001, 20 μM in CPE formulation, 72 hr
# [22] = M4N lot EM1001, 40 μM in CPE formulation, 72 hr
# [23] = M4N lot EM1001, 60 μM in CPE formulation, 72 hr
# [24] = M4N lot EM1001, 80 μM in CPE formulation, 72 hr
# [25] = M4N lot EM1002, 20 μM in CPE formulation, 72 hr
# [26] = M4N lot EM1002, 40 μM in CPE formulation, 72 hr
# [27] = M4N lot EM1002, 60 μM in CPE formulation, 72 hr
# [28] = M4N lot EM1002, 80 μM in CPE formulation, 72 hr
smiles,measurement,setting,value
"COc1ccc(C[C@@H](C)[C@@H](C)Cc2ccc(OC)c(OC)c2)cc1OC [Formulation M4N, meso-1,4-bis(3,4-dimethoxyphenyl)-2,3-dimethylbutane]",Proliferation Rate,"M4N 60 μM in CPE formulation, 72 hr, at 3 months",0.03
same,% Dead Cells,[1],13.6%
same,% Viability,[1],86.4%
same,Proliferation Rate,[1],0.09
same,% Dead Cells,[2],25.0%
same,% Viability,[2],75.0%
same,Proliferation Rate,[2],0.05
same,% Dead Cells,[3],55.6%
same,% Viability,[3],44.5%
same,Proliferation Rate,[3],0.03
same,% Dead Cells,[4],19.6%
same,% Viability,[4],80.4%
same,Proliferation Rate,[4],0.13
same,% Dead Cells,[5],26.2%
same,% Viability,[5],73.9%
same,Proliferation Rate,[5],0.10
same,% Dead Cells,[6],32.5%
same,% Viability,[6],67.5%
same,Proliferation Rate,[6],0.03
same,% Dead Cells,[7],35.4%
same,% Viability,[7],64.6%
same,Proliferation Rate,[7],0.04
same,% Dead Cells,[8],36.1%
same,% Viability,[8],63.9%
same,Proliferation Rate,[8],0.13
same,% Dead Cells,[9],45.2%
same,% Viability,[9],54.8%
same,Proliferation Rate,[9],0.07
same,% Dead Cells,[10],35.6%
same,% Viability,[10],64.4%
same,Proliferation Rate,[10],0.04
same,% Dead Cells,[11],25.0%
same,% Viability,[11],75.0%
same,Proliferation Rate,[11],0.09
same,% Dead Cells,[12],29.0%
same,% Viability,[12],71.0%
same,Proliferation Rate,[12],0.03
same,% Dead Cells,[13],11.9%
same,% Viability,[13],88.1%
same,Proliferation Rate,[13],0.08
same,% Dead Cells,[14],47.2%
same,% Viability,[14],52.8%
same,Proliferation Rate,[14],0.03
same,% Dead Cells,[15],56.7%
same,% Viability,[15],43.4%
same,Proliferation Rate,[15],0.04
same,% Dead Cells,[16],21.5%
same,% Viability,[16],78.5%
same,Proliferation Rate,[16],0.13
same,% Dead Cells,[17],21.6%
same,% Viability,[17],78.4%
same,Proliferation Rate,[17],0.11
same,% Dead Cells,[18],50.0%
same,% Viability,[18],50.0%
same,Proliferation Rate,[18],0.02
same,% Dead Cells,[19],23.6%
same,% Viability,[19],76.5%
same,Proliferation Rate,[19],0.15
same,% Dead Cells,[20],38.6%
same,% Viability,[20],61.4%
same,Proliferation Rate,[20],0.02
same,Cell proliferation rate,M4N in DMSO or CPE formulation vs non-M4N-treated controls in the same formulation,reduced
same,% Dead Cells,[21],5.1%
same,% Viability,[21],94.9%
same,Proliferation Rate,[21],0.25
same,% Dead Cells,[22],26.3%
same,% Viability,[22],73.7%
same,Proliferation Rate,[22],0.10
same,% Dead Cells,[23],55.6%
same,% Viability,[23],44.4%
same,Proliferation Rate,[23],0.01
same,% Dead Cells,[24],40.2%
same,% Viability,[24],59.8%
same,Proliferation Rate,[24],0.01
same,% Dead Cells,[25],12.0%
same,% Viability,[25],88.0%
same,Proliferation Rate,[25],0.32
same,% Dead Cells,[26],25.8%
same,% Viability,[26],74.2%
same,Proliferation Rate,[26],0.11
same,% Dead Cells,[27],58.1%
same,% Viability,[27],41.9%
same,Proliferation Rate,[27],0.05
same,% Dead Cells,[28],59.7%
same,% Viability,[28],40.3%
same,Proliferation Rate,[28],0.03
same,IC50,"read-out: M4N sufficient to cause about a 50% inhibition in cell proliferation, CPE formulation, 72 hr",~20 µM
